The record followed here is patent publication EP4059493A1, “A CHLOROPHYLLIN CONTAINING PHARMACEUTICAL COMPOSITION FOR PREVENTION OF PATHOGENESIS OF CORONAVIRUS DISEASE” (priority 2021, dated 2022).

pEC50: −log10 of the molar value. Where two headings read alike, the source gives them in different places.

The test system of series [1] is Vero CCL-81 cells. The note with it: 5µM Concentration (Fig 4B right panel).
The test system of series [2] is rats. Nature of the series: Acute oral toxicity (oral gavage), rats. The format is in vivo. The method, then:
(§1) Different doses of Chlorophyllin (100 to 5000 mg/kg body weight) were given to mice and rats (6 males, 6 females) by oral gavage in an accredited facility for animal toxicity testing. […] There were no signs of toxicity in rodents treated with indicated doses of Chlorophyllin.

Series [3] concerns healthy human subjects. As to the kind of experiment: Phase I clinical study: tolerability in healthy human subjects. The format is in vivo. As to conditions: 750 mg given twice a day, all five human subjects. As to the method: (§2) An open label Phase I clinical study was conducted to assess pharmacodynamics of sodium copper Chlorophyllin in healthy adult, human male subjects under fasting conditions. The study was approved by Drug Controller General of India (DCGI). The trial is registered with the Clinical Trial Registry of India (CTRI/2018/09/015576). Five healthy male subjects were allowed to fast overnight and one Chlorophyllin tablet (750 mg) was administered to each subject by oral route along with ∼200 ml water. The subjects were given breakfast, lunch and snacks and a second tablet of Chlorophyllin (750 mg) was administered to each subject by oral route along with 200 ml water after 12 hr.

Series [4] relates to lymphocytes. Nature of the series: Phase I clinical study: lymphocyte counts in blood. The note with it: Fig 4A. The format is in vivo, human. The method, then: as §2
(§3) Chlorophyllin tablets comprising Chlorophyllin or salts thereof (750 mg), were administered to healthy human subjects after overnight fasting. Blood samples were collected through an indwelling intravenous cannula (Venflon) placed in the fore arm vein of the subjects at different time intervals. Absolute neutrophil count (ANC) and white blood cell (WBC) counts were measured. Serum was separated and chemokine concentration in the serum was measured using cytometric bead array.

For series [5], the system named is SARS-CoV-2 virus. The format is cell-based.
The test system of series [6] is neutrophils. Nature of the series: Phase I clinical study: absolute neutrophil count (ANC) in blood. The format is in vivo, human. The method, then:
as §2, §3

Series [7] concerns MIP-1β. As to the kind of experiment: Phase I clinical study: serum chemokine by cytometric bead array, MIP-1β. The format is in vivo, human. As to conditions: 24hr after first dose. As to the method: as §2, §3
Series [8] relates to rats. Nature of the series: 28 day repeat dose toxicity study. As to conditions: daily dose of 1000 mg per kg body weight for 28 consecutive days. The format is in vivo. The method, then:
as §1

Series [9] deals with CD34+ hematopoietic stem and progenitor cells. Nature of the series: Phase I clinical study: CD34+ hematopoietic stem and progenitor cells in blood by flow cytometry. The format is in vivo, human. As to conditions: 750 mg tablets, fasting (Fig 2). As to the method: as §2
Blood sample at each time point was also collected in K2EDTA vacutainer tube and erythrocytes were lysed using RBC lysis buffer. Then cells were stained with fixable far red live dead reagent and PE-CD34 and FITC-CD45 antibodies at 4°C and fixed with 4% formaldehyde. The frequency of CD34+ hematopoietic stem and progenitor cells in the blood was determined by flow cytometry and FlowJo software.
(In general: In flow cytometry, cells or beads pass a laser one at a time.)

Series [10] has as its system MCP-1. Nature of the series: Phase I clinical study: serum chemokine by cytometric bead array, MCP-1. The format is in vivo, human. As to conditions: 24hr after first dose. The method, then:
as §2, §3

Series [11] deals with MIP-1α. As to the kind of experiment: Phase I clinical study: serum chemokine by cytometric bead array, MIP-1α. The format is in vivo, human. As to conditions: 72hr after first dose. As to the method: as §2, §3
Series [12] concerns white blood cell. Nature of the series: Phase I clinical study: white blood cell (WBC) count in blood. As to conditions: 8-16hr after first dose (750 mg), fasting. The format is in vivo, human. The method, then: as §2, §3
Series [13] deals with mice. Nature of the series: Acute oral toxicity (oral gavage), mice. The format is in vivo. As to the method: as §1

Sodium copper Chlorophyllin: the “cytotoxicity in the target cells” value in [1] is on record as “without causing cytotoxicity”. In addition, the “tolerability of acute oral dose” value in series [2] (rats, up to 5000 mg/kg body weight, oral gavage) is “well tolerated”; in series [13] (mice, up to 5000 mg/kg body weight, oral gavage), “well tolerated”. In addition, the LD50 dose entry is “higher than 5000 mg/kg body weight” in series [2] (rodents (rats), proposed from absence of toxicity, morbidity or mortality) and “higher than 5000 mg/kg body weight” in series [13] (rodents (mice), proposed from absence of toxicity, morbidity or mortality). In addition, in series [3], the “tolerability in human subjects” value is listed as “well tolerated”. In addition, the “increase in the lymphocyte counts in human blood as compared to pre-dose value” in [4] is listed as “up to 30%”. For the same substance, the “effect on SARS-CoV-2 virus multiplication” value in [5] (0.1 micro molar concentration (Fig 4 right panel)) is recorded as “did not inhibit”. Besides, the “inhibition of SARS-CoV-2 multiplication” value in series [5] (5 micro-molar concentration, 72 hr (three days), Vero CCL-81 cells) is listed as approximately 87%. Besides, the pEC50 in series [5] (72 hr treatment, read-out: concentration of CHL required to inhibit the growth of SARS-CoV-2 virus by 50% (EC50)) is more than 6.00; in series [5] (Vero CCL-81 cells, 72 hr, read-out: concentration of Chlorophyllin required for inhibition of 50% viral multiplication(EC50)), more than 6.00. Moreover, in [5] (Fig 4), the “concentration of chlorophyllin required for ∼90% inhibition of multiplication of SARS-CoV-2 virus” value is “about 5 micro molar”. Besides, in [5] (less than 1 micro-molar concentration), the “effect on multiplication of SARS-CoV-2 virus” value is recorded as “did not significantly decrease”. In addition, the “time after first dose at which ANC increase was observed” value in [6] (750 mg, 4hr before second dose) is not above 8 h. Moreover, the “increase in ANC relative to pre-dose value” in series [6] (8-16 hr after first dose (750 mg), fasting, five subjects) is 12.4-32.5%. In series [7], the “relative decrease in MIP-1β in human blood as compared to pre-dose value” is listed as 11-55%. In addition, the “tolerability in repeat dose toxicity study” value in series [8] was “well tolerated”. The “relative decrease in percentage of CD34+ HPSCs in human blood as compared to pre-dose value” in [9] is 50-85%. In addition, the “relative decrease in MCP-1 in human blood as compared to pre-dose value” in [10] is given as 13-37%. For the same substance, in series [11], the “relative decrease in MIP-1α in human blood as compared to pre-dose value” is 12-21%. Besides, the “increase in WBC count relative to pre-dose value” in series [12] is listed as 12.8-26.5%.
